The text below walks through data of US12492202B2, “Macrocyclic PAD4 inhibitors useful as immunosuppressant” (BRISTOL-MYERS SQUIBB COMPANY, priority 2020, dated 2025).

The experiment has as its target human PAD4 (hPAD4) (Homo sapiens (Human), UniProt Q9UM07). Nature of the experiment: RFMS Human PAD4 Functional Assay. The settings on record: rapid-fire mass spectrum (RFMS) assay; 5 nM hPAD4 enzyme, 250 μM BAEE, 30 min preincubation at 37° C. Type of experiment: biochemical.

Chain of human PAD4 (hPAD4) (Q9UM07 whole entry): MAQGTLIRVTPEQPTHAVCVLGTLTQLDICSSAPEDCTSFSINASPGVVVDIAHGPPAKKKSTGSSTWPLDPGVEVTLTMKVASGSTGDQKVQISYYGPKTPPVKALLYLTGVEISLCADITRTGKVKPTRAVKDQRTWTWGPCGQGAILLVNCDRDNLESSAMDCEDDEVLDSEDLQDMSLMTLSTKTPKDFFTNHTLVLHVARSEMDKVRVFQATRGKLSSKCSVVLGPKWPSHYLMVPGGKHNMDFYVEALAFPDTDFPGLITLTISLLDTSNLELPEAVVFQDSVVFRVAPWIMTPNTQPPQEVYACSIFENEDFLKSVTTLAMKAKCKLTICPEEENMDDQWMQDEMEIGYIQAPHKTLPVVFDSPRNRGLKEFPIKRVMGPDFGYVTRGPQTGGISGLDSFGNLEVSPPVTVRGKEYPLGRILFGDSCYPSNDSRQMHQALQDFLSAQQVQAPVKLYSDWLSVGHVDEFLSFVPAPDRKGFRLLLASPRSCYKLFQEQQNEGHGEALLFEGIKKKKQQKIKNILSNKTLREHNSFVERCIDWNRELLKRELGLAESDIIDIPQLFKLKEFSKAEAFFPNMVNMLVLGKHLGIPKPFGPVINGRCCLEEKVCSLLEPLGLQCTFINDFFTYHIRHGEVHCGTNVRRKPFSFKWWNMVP
Description: RFMS Human PAD4 Functional Assay: Compounds were solubilized in 100% DMSO to achieve a 10 mM compound concentration. Compound stock solutions were stored at RT. A series of dilutions were prepared in DMSO and mixed 8 times with 20 μL mixing volume. Final top concentration of compound in the assay is 50 μM. Final assay conditions were as follows: • Reaction volume: 26 μl • Assay buffer: 25 mM hepes, pH 7.5, 5 mM NaCl, 1 mM DTT, 0.2 mg/ml BSA, 0.01% CHAPS, 50 μM Calcium, and 5 μM TPEN • Final concentrations: 5 nM hPAD4 enzyme, 250 μM BAEE, and 0.5% DMSO • Total incubation time: 30 mins compound and enzyme preincubation at 37° C., 90 min enzyme/substrate reaction, 30 min reaction with phenyl glyoxal at 37° C. • Stop solution: 40 μl 5% TCA in ACN 0.13 μL of compound solution was added to 13 μL of 10 nM PAD4 in assay buffer. After 30 min 13 μl of 500 μM of BAEE was added in 25 mM hepes, pH 7.5, 5 mM NaCl, 1 mM DTT, 0.2 mg/ml BSA, 0.01% CHAPS, 50 μM Calcium, 5 μM TPEN was added and the reaction incubated for 90 min at 37° C. The enzymatic reaction was quenched by addition of 15 μl of 6.1N TCA, 100% Final Concentration is 20%, 35 μl of 8.5 mM phenyl glyoxal (final concentration 4 mM) is then added and the reaction is incubated for 30 min at 37° C. After 30 minutes the plates are spun down to remove all precipitate. The enzyme reaction was quenched with an equal volume of methanol containing internal standard (modified citrulline). Samples were loaded onto the Rapid Fire RF300 system (Agilent) wherein they were first sipped for 1000 ms and then directly loaded to a C18 separations cartridge using a mixture of acetonitrile containing 0.01% formic acid for 3000 ms desalting. The flow rate of the mobile phase was 1.5 ml/min. Once the samples were eluted from the cartridge, a mobile phase of acetonitrile containing 0.01% formic acid was used to move the samples into the mass spectrometer for 4000 ms at a flow rate of 1.25 ml/min/Sciex API5500 triple quadrupole mass spectrometer (Applied Biosystems) equipped with ESI was used to analyze the peptidyl citrulline and internal standard ions. MRM transition of product and internal standard were monitored at m/z 424.5 to 350.4 and m/z 293 to 247 respectively. The dwell time for each transition was set at 200 ms, and the ESI voltage was used at 5500 with a source temperature of 400° C. Extracted ion peaks for each transition were integrated using the Rapid Fire Integrator software. Peak area of analyte was normalized with internal standard).

In turn, `COc1cc(C(=O)N2CC3CCC2[C@@H]3N)cc2nc3n(c12)Cc1cncc(c1)-c1ccccc1OCCCn1c-3cc2cccnc21` (stereo partly drawn) [Example 36, ((1R,4R,7R)-7-amino-2-azabicyclo[2.2.1]heptan-2-yl)(2^7-methoxy-1^1H,2^1H-6-oxa-1,2(2,1)-dipyrrolo[2,3-b]pyridina-4(3,5)-pyridina-5(1,2)-benzenacyclononaphane-2^5-yl)methanone] gave an IC50 of 7 nM.

Compound `COc1cc(C(=O)N2C[C@H]3CC[C@@H]2[C@@H]3N)cc2nc3n(c12)CCC(=O)Nc1ccccc1OCCCn1c-3cc2cccnc21` [Example 40, 21-((1R,4R,7R)-7-amino-2-azabicyclo[2.2.1]heptane-2-carbonyl)-19-methoxy-7,8,16,17-tetrahydro-6H-benzo[b]benzo[4,5]imidazo[1,2-h]pyrido[3′,2′:4,5]pyrrolo[2,1-j][1]oxa[4,8,11]triazacyclotetradecin-15(14H)-one] had an IC50 of 30 nM.

`COc1cc(C(=O)N2C[C@H]3CC[C@@H]2[C@@H]3N)cc2nc3n(c12)Cc1cccc(c1)CCCCCCn1c-3cc2cccnc21` [Example 42, ((1R,4R,7R)-7-amino-2-azabicyclo[2.2.1]heptan-2-yl)(27-methoxy-11H,21H-1,2(2,1)-dipyrrolo[2,3-b]pyridina-4(1,3)-benzenacyclodecaphane-25-yl)methanone] showed an IC50 of 49.7 nM.

The compound `COc1cc(C(=O)N2C[C@H]3CC[C@@H]2[C@@H]3N)cc2nc3n(c12)Cc1cccc(c1)[C@@H]1CN(C)C[C@@H]1CCCCn1c-3cc2cccnc21` [Example 43, ((1R,4R,7R)-7-amino-2-azabicyclo[2.2.1]heptan-2-yl)((5^3R,5^4R)-2^7-methoxy-5′-methyl-1′H,2^1H-1,2(2,1)-dipyrrolo[2,3-b]pyridina-5(3,4)-pyrrolidina-4(1,3)-benzenacyclononaphane-2^5-yl)methanone] came in with an IC50 of 153 nM.

As for `COc1cc(C(=O)N2C[C@H]3CC[C@@H]2[C@@H]3N)cc2nc3n(c12)Cc1cccc(c1)C1[C@@H](CCCCn2c-3cc3cccnc32)C1(F)F` (stereo partly drawn) [Example 44, ((1R,4R,7R)-7-amino-2-azabicyclo[2.2.1]heptan-2-yl)((5^1S,5^2R)-5^3,5^3-difluoro-2^7-methoxy-1H,2^1H-1,2(2,1)-dipyrrolo[2,3-b]pyridina-4(1,3)-benzena-5(1,2)-cyclopropanacyclononaphane-2^5-yl)methanone], 216 nM corresponded to half-maximal inhibition (IC50).

`COc1cc(C(=O)N2C[C@H](N)C[C@@H](F)C2)cc2nc3n(c12)Cc1cccc(c1)/C=C\CCCCn1c-3cc2cccnc21` [Example 51, ((3R,5R)-3-amino-5-fluoropiperidin-1-yl)((Z)-2^7-methoxy-1^1H,2^1H-1,2(2,1)-dipyrrolo[2,3-b]pyridina-4(1,3)-benzenacyclodecaphan-5-en-2^5-yl)methanone] yielded an IC50 of 119 nM.

Regarding `COc1cc(C(=O)N2C[C@H](N)C[C@@H](F)C2)cc2nc3n(c12)Cc1cncc(c1)-c1ccccc1CCCCn1c-3cc2ccc(C(C)(C)O)nc21` [Example 52, ((3R,5R)-3-Amino-5-fluoropiperidin-1-yl)(1^6-(2-hydroxypropan-2-yl)-2^7-methoxy-1^1H,2^1H-1,2(2,1)-dipyrrolo[2,3-b]pyridina-4(3,5)-pyridina-5(1,2)-benzenacyclononaphane-2^5-yl)methanone], the IC50 came out at 8 nM.

With `COc1cc(C(=O)N2C[C@H]3CC[C@@H]2[C@@H]3N)cc2nc3n(c12)Cc1cncc(c1)-c1ccccc1CCCCn1c-3cc2ccc(C(C)(C)O)nc21` [Example 53, ((1R,4R,7R)-7-Amino-2-azabicyclo[2.2.1]heptan-2-yl)(1^6-(2-hydroxypropan-2-yl)-2^7-methoxy-1^1H,2^1H-1,2(2,1)-dipyrrolo[2,3-b]pyridina-4(3,5)-pyridina-5(1,2)-benzenacyclononaphane-2^5-yl)methanone], the IC50 came to 14 nM.

With “((1R,4R,7R)-7-amino-2-azabicyclo[2.2.1]heptan-2-yl)((cis)-6,7-dihydroxy-2^7-methoxy-1^1H,2^1H-1,2(2,1)-dipyrrolo[2,3-b]pyridina-4(1,3),5(1,2)-dibenzenacyclononaphane-2^5-yl)methanone [Example 39]”, half-maximal inhibition (IC50) was put at 26 nM.

On to “((3R,5R)-3-amino-5- fluoropiperidin-1-yl)((Z)-2^7- methoxy-1^1H,2^1H,4^1H-2(2,1)- benzo[d]imidazola-1(2,1)-indola- 4(4,1)-pyrazolacyclodecaphane- 2^5-yl)methanone [Example 7]”, for which half-maximal inhibition (IC50) required 136 nM.

The term IC50 denotes the midpoint of a concentration-inhibition curve. A low value points to inhibition by little substance.
